These results are taken from patent US10519211B2, “Compounds as peptidic GLP1/glucagon/GIP receptor agonists” (SANOFI, priority 2016, dated 2019).

Numbered stars: 1 amine (or outer) side, 2 acyl side, 3 side chain; on linkers, the order of the positions; unused ones are H or OH. Square brackets hold non-standard residues; d marks the D form. Side chains are listed from the residue outwards. Peptide text beside a SMILES is read from it. * marks the point of attachment. Adipoyl(4R-palmitoylamino) = CCCCCCCCCCCCCCCC(=O)N[C@H](CCC(=O)*)CC(=O)O; γGlu = O=C(O)[C@H](CCC(=O)[*:2])N[*:1]; Palmitoyl = CCCCCCCCCCCCCCCC(=O)*; AEEA = NCCOCCOCC(=O)O; Aib = CC(C)(N)C(=O)O

For series [1], the target named is T1, human GIP receptor (hGIP-R) (Homo sapiens, UniProt P48546).
T1 construct: expressed in transfected cells; host or cells: HEK-293
T1 sequence (P48546 22-466): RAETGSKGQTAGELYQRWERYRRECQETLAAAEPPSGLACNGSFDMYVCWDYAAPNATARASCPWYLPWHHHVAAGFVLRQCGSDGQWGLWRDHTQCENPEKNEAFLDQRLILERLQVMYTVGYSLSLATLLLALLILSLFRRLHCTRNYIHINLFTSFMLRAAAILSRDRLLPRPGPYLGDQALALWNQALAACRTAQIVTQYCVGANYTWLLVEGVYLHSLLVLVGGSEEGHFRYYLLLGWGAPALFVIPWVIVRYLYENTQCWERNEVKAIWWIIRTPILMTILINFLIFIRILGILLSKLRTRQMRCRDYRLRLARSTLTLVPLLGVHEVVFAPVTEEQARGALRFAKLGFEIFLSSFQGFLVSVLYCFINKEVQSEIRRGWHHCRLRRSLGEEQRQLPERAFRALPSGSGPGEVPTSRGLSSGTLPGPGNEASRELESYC
As to the kind of experiment: cAMP response (HTRF) of HEK-293 cells stably expressing human GIP receptor. The series is classed as cell-based. Particulars: Table 8; cAMP formation. How it is done:
(§1) cAMP content of cells was determined using a kit from Cisbio Corp. (cat. no. 62AM4PEJ) based on HTRF (Homogenous Time Resolved Fluorescence). For preparation, cells were split into T175 culture flasks and grown overnight to near confluency in medium (DMEM/10% FBS). Medium was then removed and cells washed with PBS lacking calcium and magnesium, followed by proteinase treatment with accutase (Sigma-Aldrich cat. no. A6964). Detached cells were washed and resuspended in assay buffer (1×HBSS; 20 mM HEPES, 0.1% BSA, 2 mM IBMX) and cellular density determined. They were then diluted to 400000 cells/ml and 25 μl-aliquots dispensed into the wells of 96-well plates. For measurement, 25 μl of test compound in assay buffer was added to the wells, followed by incubation for 30 minutes at room temperature.
(§2) Potencies of peptidic compounds at the GLP-1, glucagon and GIP receptors were determined by exposing cells expressing human glucagon receptor (hGlucagon R), human GIP receptor (hGIP-R) or human GLP-1 receptor (hGLP-1 R) to the listed compounds at increasing concentrations and measuring the formed cAMP as described in Methods.
(In general: Time-resolved FRET reads energy transfer from a long-lived donor to a nearby acceptor.)

Series [2] can be described thus: Chemical stability assessment (UPLC-UV, relative purity loss). The series is classed as physicochemical. The settings on record: 1 mg/ml, 25 mM acetate buffer pH 4.5 with m-cresol (buffer system A). The method, then:
Prior to the chemical stability measurement of a peptide batch, its purity was determined through UPLC/MS. For stability testing the target concentration was 1 mg pure compound/ml. Therefore solutions from solid samples were prepared in a buffer system with a concentration of 1 mg/mL compound based on the previously determined % purity:
Chemical stability buffer system A) 25 mM acetate buffer pH4.5, 3 mg/mL L-Methionine, 2.7 mg/mL m-cresol, 18 mg/mL Glycerol 85%
Peptide solutions were filtered through […] pore size and filled into aliquots under aseptic conditions. At starting point UPLC-UV was performed by injection of 2 μl of the undiluted sample.
For chemical stability testing, aliquots were stored for 28 days at Sand 40° C. After this time course the samples were centrifuged for 15 min at 2500 RCF. Then 2 μl of the undiluted supernatant were analysed with UPLC-UV.
The chemical stability was rated through the relative loss of purity calculated by the equation: [(purity at starting point)−(purity after 28 days at X° C.)]/(purity at starting point)]*100%
The purity is calculated as [(peak area peptide)/(total peak area)]*100%
Peptide samples were prepared in Chemical stability buffer system A and chemical stability was assessed as described in Methods.

The nature of series [3]: Solubility assessment (UPLC-UV). The series is classed as physicochemical. Particulars: acetate buffer pH 4.5, 2.7 mg/ml m-cresol (buffer system A), target 10 mg/ml. The method, then: Prior to the solubility measurement of a peptide batch, its purity was determined through UPLC/MS.
Therefore solutions from solid samples were prepared in a buffer systems with a concentration of 10 mg/mL compound based on the previously determined % purity:
Solubility buffer system A) Acetate Buffer pH 4.5, 100 mM sodium acetate trihydrate, 2.7 mg/ml m-Cresol
UPLC-UV was performed after 1 hour of gentle agitation from the supernatant, which was obtained after 15 min of centrifugation at 2500 RCF (relative centrifugal acceleration).
The solubility was determined by the comparison of the UV peak area of 2 μL-injection of a buffered sample diluted 1:10 with a standard curve of a reference peptide with known concentration. The different UV extinction coefficients of sample and reference peptide were calculated based on the different amino acid sequences and considered in the concentration calculation.
Peptide samples were prepared in solubility buffer system A and solubility was assessed as described in Methods.

The nature of series [4]: Dynamic light scattering (DLS), hydrodynamic radius as surrogate for interaction parameter kD. It is filed as physicochemical. How it is done:
For every peptide solution, the hydrodynamic radius Rh and the diffusion constant D (related via the Stokes-Einstein equation) were determined as an average over triplicates. Both parameters were determined at different concentrations (e.g., Rh1 and D1: 1 mg/ml and Rh5 and D5: 5 mg/ml) in the same buffer system. The difference of these parameters between low and high peptide concentration is a surrogate for the DLS interaction parameter kD. Rh5<Rh1 or D5>D1 correspond to kD>0 and therefore to repulsive inter-particle interactions that result in improved physical (or colloidal) stability.
DLS buffer system A) 25 mM acetate buffer pH4.5, 3 mg/mL L-Methionine, 2.7 mg/mL m-cresol, 18 mg/mL Glycerol 85%
DLS Method C: DLS measurements were performed on a DynaPro Plate Reader II (Wyatt Technology, Santa Barbara, Calif., US) and using one of the following black, low volume, and non-treated plates: polystyrene 384 assay plate with clear bottom (Corning, N.Y., US), polystyrene 96 assay plate with clear bottom (Corning, N.Y., US), cyclo olefin polymer (COP) 384 assay plate with clear bottom (Aurora, Mont., US), or polystyrene 384 assay plate with clear bottom (Greiner Bio-One, Germany). The data were processed with the Dynamics software provided by Wyatt Technology. Parameters of the particle size distribution were determined with non-negatively constrained least squares (NNLS) methods using DynaLS algorithms. Measurements were taken at 25° C. with an 830 nm laser light source at an angle of 158°.
The hydrodynamic radius radius Rh of peptide samples was determined at different peptide concentrations (1 mg/ml and 5 mg/ml) in DLS buffer system A using DLS method C as described in Methods as surrogate for the DLS interaction parameter kD.

Series [5] in a line: Thioflavin T (ThT) assay for physical stability (fibrillation). Particulars: 3 mg/ml, 100 mM acetate pH 4.5 with m-cresol, shaking at 37° C. The series is classed as physicochemical. The method, then:
Investigations were carried out to determine fibrillation tendencies under stress conditions by shaking at 37° C. within Fluoroskan Ascent FL.
For the tests in Fluoroskan Ascent FL, 200 μL sample were placed into a 96 well mictrotiter plate PS, flat bottom, Greiner Fluotrac No. 655076. Plates were sealed with Scotch Tape (Quiagen). Samples were stressed by continuous cycles of 10 s shaking at 960 rpm and 50 s rest period at 37° C. The kinetic was monitored by measuring fluorescence intensity every 20 minutes.
Peptides were diluted in a buffer system to a final concentration of 3 mg/ml. 20 μL of a 10.1 mM ThT solution in H2O were added to 2 mL of peptide solution to receive a final concentration of 100 μM ThT. For each sample eight replicates were tested.
Tht buffer system A) 100 mM Acetate pH 4.5 including m-cresol (100 mM Natriumacetat trihydrat, pH adjustment using 2N CH3COOH, 2.7 mg/mL m-cresol) Tht buffer system B) 100 mM citrate buffer pH 6.0
Lag time in hours in Thioflavin T (ThT) assay of peptide samples was determined in Tht buffer system A as described in Methods.

For series [6], the target named is T2, human GLP-1 receptor (hGLP-1 R) (Homo sapiens, UniProt P43220).
T2 construct: expressed in transfected cells; host or cells: HEK-293
T2 sequence (P43220 24-463): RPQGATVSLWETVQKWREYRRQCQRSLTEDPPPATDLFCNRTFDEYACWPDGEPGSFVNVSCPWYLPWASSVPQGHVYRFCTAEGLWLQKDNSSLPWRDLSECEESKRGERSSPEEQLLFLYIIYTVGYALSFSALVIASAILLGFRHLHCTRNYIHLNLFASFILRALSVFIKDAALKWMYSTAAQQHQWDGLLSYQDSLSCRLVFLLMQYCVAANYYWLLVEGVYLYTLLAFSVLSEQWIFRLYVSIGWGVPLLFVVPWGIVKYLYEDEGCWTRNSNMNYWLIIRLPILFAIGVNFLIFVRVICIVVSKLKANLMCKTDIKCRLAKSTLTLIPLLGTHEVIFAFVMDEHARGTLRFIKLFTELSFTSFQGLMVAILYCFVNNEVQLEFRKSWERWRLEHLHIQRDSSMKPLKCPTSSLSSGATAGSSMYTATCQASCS
As to the kind of experiment: cAMP response (HTRF) of HEK-293 cells stably expressing human GLP-1 receptor. The series is classed as cell-based. The settings on record: Table 8; cAMP formation. The method, then:
as §1, §2

Broadly, the EC50 is the concentration at which the effect is half-maximal. Low values mean higher potency in that assay, high ones lower potency in that assay. The term solubility denotes how much of the substance goes into solution per volume. A high value points to a readily soluble substance. Consider `CCCCCCCCCCCCCCCC(=O)NCCOCCOCC(=O)N[C@@H](CCC(=O)N[C@@H](CCC(=O)NCCCC[C@H](NC(=O)[C@H](CC(C)C)NC(=O)[C@H](CCCCN)NC(=O)[C@H](CO)NC(=O)[C@H](CC(C)C)NC(=O)[C@H](CC(=O)O)NC(=O)[C@H](CO)NC(=O)[C@@H](NC(=O)[C@H](Cc1ccccc1)NC(=O)[C@@H](NC(=O)CNC(=O)[C@H](CCC(N)=O)NC(=O)C(C)(C)NC(=O)[C@@H](N)Cc1c[nH]cn1)[C@@H](C)O)[C@@H](C)O)C(=O)N[C@@H](CCC(=O)O)C(=O)N[C@@H](CCC(=O)O)C(=O)N[C@@H](CCC(N)=O)C(=O)N[C@@H](CCCNC(=N)N)C(=O)N[C@@H](CCC(N)=O)C(=O)NC(C)(C)C(=O)N[C@@H](CCC(=O)O)C(=O)N[C@@H](Cc1ccccc1)C(=O)N[C@H](C(=O)N[C@@H](CCC(=O)O)C(=O)N[C@@H](Cc1c[nH]c2ccccc12)C(=O)N[C@@H](CC(C)C)C(=O)N[C@@H](CCCCN)C(=O)N[C@@H](C)C(=O)N[C@H](C)C(=O)NCC(=O)N[C@@H](Cc1c[nH]cn1)C(=O)N1CCC[C@H]1C(=O)N[C@@H](CO)C(=O)NC(C)(C)C(=O)N[C@@H](CCCCN)C(=O)N1CCC[C@H]1C(=O)N1CCC[C@H]1C(=O)N1CCC[C@H]1C(=O)N[C@@H](CCCCN)C(N)=O)[C@@H](C)CC)C(=O)O)C(=O)O` [SEQ ID NO: 19, H-Aib-Q-G-T-F-T-S-D-L-S-K-L-K[gGlu-gGlu-AEEA-Palm]-E-E-Q-R-Q-Aib-E-F-I-E-W-L-K-A-dAla-G-H-P-S-Aib-K-P-P-P-K-NH2] (H-H[Aib]QGTFTSDLSKLK([γGlu-γGlu-AEEA-Palmitoyl])EEQRQ[Aib]EFIEWLKA[dA]GHPS[Aib]KPPPK-NH2), for which, in series [1], the 50% effective concentration (EC50) amounted to 7.9 pM. Moreover, in series [2], the “Chemical stability [relative purity loss 28 days 40° C.] (%) at pH 4.5” value stood at 6.0%. This compound showed a solubility at 1 h in series [3] of more than 9200 µg/mL. Moreover, the “Delta Rh [nm] = Rh5 − Rh1” value in series [4] (DLS buffer system A pH 4.5) is given as −0.1 nm. In addition, the “Rh1 [nm] c= 1 mg/ml” value in series [4] (hydrodynamic radius, 1 mg/ml, DLS buffer system A pH 4.5, DLS method C, 25° C.) is on record as 3.1 nm. Also, the “Rh5 [nm] c = 5 mg/ml” value in series [4] (hydrodynamic radius, 5 mg/ml, DLS buffer system A pH 4.5, DLS method C, 25° C.) is 3.0 nm. Moreover, in series [5], the “Lag time before increase” value is more than 45 h.
In series [6], `CCCCCCCCCCCCCCCC(=O)N[C@H](CCC(=O)NCCOCCOCC(=O)N[C@@H](CCC(=O)NCCCC[C@H](NC(=O)[C@H](CC(C)C)NC(=O)[C@H](CCCCN)NC(=O)[C@H](CO)NC(=O)[C@H](CC(C)C)NC(=O)[C@H](CC(=O)O)NC(=O)[C@H](CO)NC(=O)[C@@H](NC(=O)[C@H](Cc1ccccc1)NC(=O)[C@@H](NC(=O)CNC(=O)[C@H](CCC(N)=O)NC(=O)C(C)(C)NC(=O)[C@@H](N)Cc1c[nH]cn1)[C@@H](C)O)[C@@H](C)O)C(=O)N[C@@H](CCC(=O)O)C(=O)N[C@@H](CCCCN)C(=O)N[C@@H](CCC(N)=O)C(=O)N[C@@H](CCCNC(=N)N)C(=O)N[C@@H](CCC(N)=O)C(=O)NC(C)(C)C(=O)N[C@@H](CCC(=O)O)C(=O)N[C@@H](Cc1ccccc1)C(=O)N[C@H](C(=O)N[C@@H](CCC(=O)O)C(=O)N[C@@H](Cc1c[nH]c2ccccc12)C(=O)N[C@@H](CC(C)C)C(=O)N[C@@H](CCCCN)C(=O)N[C@@H](C)C(=O)NCC(=O)NCC(=O)N[C@@H](Cc1c[nH]cn1)C(=O)N1CCC[C@H]1C(=O)N[C@@H](CO)C(=O)NC(C)(C)C(=O)N[C@@H](CCCCN)C(=O)N1CCC[C@H]1C(=O)N1CCC[C@H]1C(=O)N1CCC[C@H]1C(=O)N[C@@H](CCCCN)C(N)=O)[C@@H](C)CC)C(=O)O)CC(=O)O` [SEQ ID NO: 20, H-Aib-Q-G-T-F-T-S-D-L-S-K-L-K[gGlu-AEEA-gAAA-Palm]-E-K-Q-R-Q-Aib-E-F-I-E-W-L-K-A-G-G-H-P-S-Aib-K-P-P-P-K-NH2] (H-H[Aib]QGTFTSDLSKLK([γGlu-AEEA-Adipoyl(4R-palmitoylamino)])EKQRQ[Aib]EFIEWLKAGGHPS[Aib]KPPPK-NH2) yielded a concentration for a half-maximal effect (EC50) of 2.4 pM. In series [5], the “Lag time before increase” value is listed as more than 45 h.
